According to US8841337B2, “Compounds useful as inhibitors of ATR kinase” (Vertex Pharmaceuticals Incorporated, priority 2011, dated 2014):

Molecular target: T1, full-length ATR (Homo sapiens, UniProt Q13535)
T1 construct: Assays were carried out at 25° C. in the presence of 5 nM full-length ATR
Experiment: ATR Inhibition Assay (radioactive-phosphate incorporation)
Assay type: biochemical
Conditions: Ki(app); 5 nM full-length ATR, 10 μM [γ-33P]ATP, 800 μM target peptide, 25° C.
Experimental: Compounds were screened for their ability to inhibit ATR kinase using a radioactive-phosphate incorporation assay. Assays were carried out in a mixture of 50 mM Tris/HCl (pH 7.5), 10 mM MgCl2 and 1 mM DTT. Final substrate concentrations were 10 μM [γ-33P]ATP (3 mCi 33P ATP/mmol ATP, Perkin Elmer) and 800 μM target peptide (ASELPASQPQPFSAKKK).
Assays were carried out at 25° C. in the presence of 5 nM full-length ATR. An assay stock buffer solution was prepared containing all of the reagents listed above, with the exception of ATP and the test compound of interest. 13.5 μL of the stock solution was placed in a 96 well plate followed by addition of 2 μL of DMSO stock containing serial dilutions of the test compound (typically starting from a final concentration of 15 μM with 3-fold serial dilutions) in duplicate (final DMSO concentration 7%). The plate was pre-incubated for 10 minutes at 25° C. and the reaction initiated by addition of 15 μL [γ-33P]ATP (final concentration 10 μM).
The reaction was stopped after […] by the addition of 30 μL 0.1M phosphoric acid containing 2 mM ATP. […]
After removing mean background values for all of the data points, Ki(app) data were calculated from non-linear regression analysis of the initial rate data using the Prism software package (GraphPad Prism version 3.0cx for Macintosh, GraphPad Software, San Diego Calif., USA).

T1 sequence (Q13535 whole entry): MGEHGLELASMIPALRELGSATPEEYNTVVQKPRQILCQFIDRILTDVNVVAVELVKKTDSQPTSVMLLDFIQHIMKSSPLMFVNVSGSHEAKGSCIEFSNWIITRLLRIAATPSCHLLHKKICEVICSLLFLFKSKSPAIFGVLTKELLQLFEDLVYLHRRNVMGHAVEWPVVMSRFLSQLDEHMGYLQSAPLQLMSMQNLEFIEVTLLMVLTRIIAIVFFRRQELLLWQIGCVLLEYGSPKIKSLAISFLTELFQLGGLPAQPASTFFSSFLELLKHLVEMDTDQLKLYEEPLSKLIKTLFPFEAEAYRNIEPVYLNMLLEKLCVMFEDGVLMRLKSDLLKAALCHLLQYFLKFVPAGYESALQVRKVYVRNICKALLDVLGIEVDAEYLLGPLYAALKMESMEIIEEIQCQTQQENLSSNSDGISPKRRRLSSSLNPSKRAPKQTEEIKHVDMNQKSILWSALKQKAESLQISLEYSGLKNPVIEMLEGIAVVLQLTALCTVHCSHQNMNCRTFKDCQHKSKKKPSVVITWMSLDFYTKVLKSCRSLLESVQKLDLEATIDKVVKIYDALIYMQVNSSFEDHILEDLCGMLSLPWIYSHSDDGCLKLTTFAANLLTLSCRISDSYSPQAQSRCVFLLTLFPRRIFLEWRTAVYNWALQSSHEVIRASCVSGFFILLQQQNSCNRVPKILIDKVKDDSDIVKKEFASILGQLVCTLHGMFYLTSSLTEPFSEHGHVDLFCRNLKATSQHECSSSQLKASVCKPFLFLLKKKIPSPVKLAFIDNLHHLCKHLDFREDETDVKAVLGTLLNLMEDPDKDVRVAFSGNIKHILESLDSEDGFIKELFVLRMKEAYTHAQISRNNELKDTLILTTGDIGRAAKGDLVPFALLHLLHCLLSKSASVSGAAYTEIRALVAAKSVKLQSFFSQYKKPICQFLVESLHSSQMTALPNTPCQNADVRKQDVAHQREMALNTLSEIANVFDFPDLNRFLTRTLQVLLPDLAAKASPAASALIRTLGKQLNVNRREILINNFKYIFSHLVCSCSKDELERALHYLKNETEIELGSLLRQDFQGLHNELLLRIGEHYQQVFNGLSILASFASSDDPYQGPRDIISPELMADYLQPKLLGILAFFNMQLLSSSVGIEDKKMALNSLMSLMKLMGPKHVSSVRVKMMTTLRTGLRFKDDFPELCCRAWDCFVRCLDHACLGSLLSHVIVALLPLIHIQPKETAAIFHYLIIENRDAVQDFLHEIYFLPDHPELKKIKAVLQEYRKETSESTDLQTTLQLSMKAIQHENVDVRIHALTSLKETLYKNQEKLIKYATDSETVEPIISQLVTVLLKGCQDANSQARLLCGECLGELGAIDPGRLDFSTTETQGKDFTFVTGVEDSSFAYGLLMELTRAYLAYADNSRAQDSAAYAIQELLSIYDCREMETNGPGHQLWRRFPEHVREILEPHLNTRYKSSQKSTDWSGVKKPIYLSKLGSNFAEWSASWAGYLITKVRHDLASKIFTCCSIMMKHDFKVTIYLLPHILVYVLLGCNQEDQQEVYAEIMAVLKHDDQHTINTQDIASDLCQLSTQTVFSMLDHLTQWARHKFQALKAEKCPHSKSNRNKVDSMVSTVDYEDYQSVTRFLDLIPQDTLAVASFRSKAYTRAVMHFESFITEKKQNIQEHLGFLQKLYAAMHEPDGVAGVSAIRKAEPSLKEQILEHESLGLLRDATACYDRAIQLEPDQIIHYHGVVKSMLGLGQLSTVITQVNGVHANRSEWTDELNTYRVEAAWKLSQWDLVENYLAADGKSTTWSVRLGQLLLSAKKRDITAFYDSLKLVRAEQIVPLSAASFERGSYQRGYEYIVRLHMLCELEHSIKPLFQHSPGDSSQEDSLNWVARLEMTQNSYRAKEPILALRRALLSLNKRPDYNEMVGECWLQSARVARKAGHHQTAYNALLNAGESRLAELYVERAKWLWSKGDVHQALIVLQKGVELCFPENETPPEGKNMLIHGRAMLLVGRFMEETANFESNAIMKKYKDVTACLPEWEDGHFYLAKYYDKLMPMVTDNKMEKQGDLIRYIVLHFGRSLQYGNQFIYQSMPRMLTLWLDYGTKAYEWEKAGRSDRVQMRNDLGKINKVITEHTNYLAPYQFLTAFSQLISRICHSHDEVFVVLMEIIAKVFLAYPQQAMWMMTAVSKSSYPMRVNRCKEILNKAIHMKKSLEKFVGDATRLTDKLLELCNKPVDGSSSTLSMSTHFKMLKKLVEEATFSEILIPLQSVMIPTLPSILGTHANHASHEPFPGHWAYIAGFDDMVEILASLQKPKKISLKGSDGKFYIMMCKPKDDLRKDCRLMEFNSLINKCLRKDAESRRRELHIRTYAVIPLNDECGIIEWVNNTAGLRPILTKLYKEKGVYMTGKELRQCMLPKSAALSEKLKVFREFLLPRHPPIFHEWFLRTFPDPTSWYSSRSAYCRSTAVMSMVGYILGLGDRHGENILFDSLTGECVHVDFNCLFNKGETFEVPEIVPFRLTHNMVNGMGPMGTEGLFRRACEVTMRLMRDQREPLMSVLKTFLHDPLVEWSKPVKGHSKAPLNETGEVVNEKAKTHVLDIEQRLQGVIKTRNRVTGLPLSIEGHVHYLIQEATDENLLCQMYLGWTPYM

Ki [nM]	Structure (SMILES)
4.03	CC(C)S(=O)(=O)c1ccc(-c2cnc(N)c(-c3ncc(-c4ccccc4)o3)n2)cc1 [Compound I-2, 5-(4-(isopropylsulfonyl)phenyl)-3-(5-phenyloxazol-2-yl)pyrazin-2-amine]
2.86	CC(C)S(=O)(=O)c1ccc(-c2cnc(N)c(-c3cc(-c4ccccc4)[nH]n3)n2)cc1 [Compound I-1, 5-(4-(isopropylsulfonyl)phenyl)-3-(5-phenyl-1H-pyrazol-3-yl)pyrazin-2-amine]
